Experimental findings from BindingDB's records for doi:10.1021/jm970742b (University of Pennsylvania, 1998) are described below.

This experiment has as its target Sodium-dependent dopamine transporter (Rattus norvegicus, UniProt P23977). In words: In vitro binding affinity towards dopamine transporter in rat striatal homogenate with [125I]IPT as the radioligand.

Chain of Sodium-dependent dopamine transporter (P23977 whole entry): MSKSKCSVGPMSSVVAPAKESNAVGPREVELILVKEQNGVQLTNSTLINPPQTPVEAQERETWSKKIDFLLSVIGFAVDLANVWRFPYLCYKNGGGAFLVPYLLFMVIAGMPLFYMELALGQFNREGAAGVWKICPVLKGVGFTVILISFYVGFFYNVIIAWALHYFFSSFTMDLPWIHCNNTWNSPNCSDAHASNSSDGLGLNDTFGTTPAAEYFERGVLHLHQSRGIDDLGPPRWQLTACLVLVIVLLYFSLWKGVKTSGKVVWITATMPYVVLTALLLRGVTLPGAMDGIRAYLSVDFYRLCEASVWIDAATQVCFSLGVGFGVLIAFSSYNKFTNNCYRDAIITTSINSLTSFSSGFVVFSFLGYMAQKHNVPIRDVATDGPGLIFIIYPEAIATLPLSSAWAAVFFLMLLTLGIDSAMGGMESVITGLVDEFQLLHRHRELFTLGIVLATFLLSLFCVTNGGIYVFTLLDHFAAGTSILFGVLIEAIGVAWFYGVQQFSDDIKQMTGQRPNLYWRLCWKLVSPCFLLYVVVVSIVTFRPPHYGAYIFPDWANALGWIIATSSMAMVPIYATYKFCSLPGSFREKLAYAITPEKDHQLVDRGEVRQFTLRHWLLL

One may read the Ki as a dissociation constant, usually derived from enzyme kinetics or from competition with a known ligand. `CN1C2CCC1[C@H](c1ccc(Cl)cc1)[C@H]2CN1CC[S][Re]2(=[O])[S]CC[N]2CC1` (stereo partly drawn) [2-[[2-[[[3-(4-chlorophenyl)-8-methyl-8-azabicyclo[3.2.1]oct-2-yl]methyl](2-mercaptoethyl)amino]ethyl]amino]ethanethiolato(3-)-oxo-[1R-(exo-exo)]-;2-{Oxo[N(R),N-bis(2-mercaptoethyl)ethylenediaminato]rhenium(V)methyl}-3-(4-chlorophenyl)tropane]: the Ki turned out to be 0.0139 µM.
The compound `CN1C2CCC1[C@H](c1ccc(Cl)cc1)[C@@H]2CN1CC[S][Re]2(=[O])[S]CC[N]2CC1` (stereo partly drawn) [2-[[2-[[[3-(4-chlorophenyl)-8-methyl-8-azabicyclo[3.2.1]oct-2-yl]methyl](2-mercaptoethyl)amino]ethyl]amino]ethanethiolato(3-)-oxo-[1R-(exo-exo)]-;2-{Oxo[N(S),N-bis(2-mercaptoethyl)ethylenediaminato]rhenium(V)methyl}-3-(4-chlorophenyl)tropane] came in with a Ki of 0.00842 µM.
